From US10307413B2, “Tetrahydro- and dihydro-isoquinoline PRMT5 inhibitors and uses thereof” (Epizyme, Inc., priority 2013, dated 2019)
Read-outs that look alike come from different tables or passages of the source.

Assays:
[1] = system: symmetric di-methyl arginine in Z-138 cells; assay: Z-138 Methylation Assay (In Cell Western for symmetric di-methyl arginine and DNA content); assay type: cell-based; conditions: Homo sapiens, In Cell Western methylation, read-out: ICW EC50
In short: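 Z-138 cells (50,000 cells/mL) treated with compound 96 h at 37 °C, then fixed and stained for symmetric di-methyl arginine (800 nm) with DRAQ5 DNA counterstain (700 nm) on Licor Odyssey.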

PRMT5/MEP50 = PRMT5/MEP50 (Homo sapiens (Human), UniProt O14744); assay: PRMT5 Biochemical Assay (PRMT5/MEP50 enzyme assay on peptide substrate, 3H-SAM Flashplate); conditions: PRMT5 biochemical assay
Sequence of PRMT5/MEP50 (O14744 other isoform, or with tags, fused parts or gaps): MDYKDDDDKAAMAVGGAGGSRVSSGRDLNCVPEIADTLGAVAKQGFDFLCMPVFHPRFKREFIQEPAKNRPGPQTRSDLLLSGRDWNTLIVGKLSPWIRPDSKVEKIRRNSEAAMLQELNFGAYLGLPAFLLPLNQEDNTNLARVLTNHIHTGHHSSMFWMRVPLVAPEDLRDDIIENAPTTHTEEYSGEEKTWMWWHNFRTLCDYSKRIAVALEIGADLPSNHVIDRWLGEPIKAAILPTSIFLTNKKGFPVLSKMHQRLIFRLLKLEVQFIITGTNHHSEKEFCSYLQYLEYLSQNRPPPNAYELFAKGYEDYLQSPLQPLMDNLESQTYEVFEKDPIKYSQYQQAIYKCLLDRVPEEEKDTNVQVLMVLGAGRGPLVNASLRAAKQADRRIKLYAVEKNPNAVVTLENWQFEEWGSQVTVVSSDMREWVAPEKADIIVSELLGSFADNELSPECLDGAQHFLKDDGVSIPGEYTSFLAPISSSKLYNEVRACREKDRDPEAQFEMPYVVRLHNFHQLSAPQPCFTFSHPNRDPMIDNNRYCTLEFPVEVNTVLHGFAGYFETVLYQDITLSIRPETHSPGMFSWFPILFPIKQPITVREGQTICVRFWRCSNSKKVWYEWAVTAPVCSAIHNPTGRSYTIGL
Sequence of PRMT5/MEP50 (Q9BQA1 other isoform, or with tags, fused parts or gaps partner): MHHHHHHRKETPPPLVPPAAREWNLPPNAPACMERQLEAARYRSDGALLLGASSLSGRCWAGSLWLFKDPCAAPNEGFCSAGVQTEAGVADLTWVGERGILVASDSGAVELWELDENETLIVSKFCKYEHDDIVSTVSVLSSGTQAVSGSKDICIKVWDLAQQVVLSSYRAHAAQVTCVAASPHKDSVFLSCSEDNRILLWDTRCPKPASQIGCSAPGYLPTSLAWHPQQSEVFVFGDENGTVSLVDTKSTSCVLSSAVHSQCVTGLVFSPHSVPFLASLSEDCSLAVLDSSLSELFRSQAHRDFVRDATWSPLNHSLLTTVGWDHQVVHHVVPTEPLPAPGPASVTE
In short: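 Radiometric methylation of a biotin-tagged H4(1-15) peptide by human PRMT5/MEP50 from baculovirus/Sf9, with ³H-SAM incorporation read on streptavidin Flashplates. Buffer: Bicine pH 7.6, TCEP, BSG, Tween20; compound preincubated 30 min at 25 °C; stopped with 600 µM final unlabeled SAM. DMSO and SAH controls; IC50 from fitted % inhibition.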

Z-138 cell line = assay: Z-138 Proliferation Assay (Cell Titer Glo, 5 days); assay type: cell-based; conditions: Homo sapiens, read-out: Proliferation EC50
In short: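 Z-138 cells exposed 5 days at 37 °C, 5% CO2 to nine-point 3-fold dilutions (final top 20 μM, 0.2% DMSO), in triplicate. Viability read as ATP by CellTiter-Glo luminescence; IC50 from 4-parameter fit of normalized dose-response curves.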

[2] = 120 h, Z-138 cells, 5 days, Cell Titer Glo

SMILES	EC50 [1]	IC50 (PRMT5/MEP50)	EC50 (Z-138 cell line; [2])	EC50 (Z-138 cell line; Z-138, 120 h)
CC(=O)N1CCC(Nc2cc(C(=O)NC(C)C(O)CN3CCc4ccccc4C3)ncn2)CC1 (stereo not drawn) [Compound 536]	< 0.1 µM	< 0.1 µM	0.101 to 1 µM	–
COC(CNC(=O)c1cc(NC2CCNCC2)ncn1)CN1CCc2ccccc2C1 (stereo not drawn) [Compound 538]	> 1 µM	1 to 10 µM	> 5 µM	–
COC(CNC(=O)c1cc(NC2CCN(C)CC2)ncn1)CN1CCc2ccccc2C1 (stereo not drawn) [Compound 540]	> 1 µM	1 to 10 µM	> 5 µM	–
COC(CNC(=O)c1cc(NC2CCN(C(C)=O)CC2)ncn1)CN1CCc2ccccc2C1 (stereo not drawn) [Compound 542]	0.101 to 1 µM	0.101 to 1 µM	> 5 µM	–
O=C(NC[C@H](O)CN1CCc2ccccc2C1)c1cnnc(NC2CCOC2)c1 (stereo partly drawn) [Compound 544]	< 0.1 µM	< 0.1 µM	0.101 to 1 µM	–
O=C(NC[C@H](O)CN1CCc2ccccc2C1)c1cnnc(NC2COC2)c1 [Compound 545]	< 0.1 µM	< 0.1 µM	1 to 10 µM	–
CC(=O)N1CC(Nc2cc(C(=O)NC[C@H](O)CN3CCc4ccccc4C3)nc(C(C)(C)C)n2)C1 [Compound 546]	< 0.1 µM	< 0.1 µM	< 0.1 µM	–
O=C(NC[C@H](O)CN1CCc2ccccc2C1)c1cc(NC2COC2)nc(NC2COC2)n1 [Compound 547]	< 0.1 µM	< 0.1 µM	< 0.1 µM	–
O=C(NC[C@H](O)CN1CCc2ccccc2C1)C1=CC2=N[C@H](CO)CN2C=N1 [Compound 548]	> 1 µM	0.101 to 1 µM	> 5 µM	–
O=C(NC[C@H](O)CN1CCc2ccccc2C1)c1cc(NC2CCNCC2)ccn1 [Compound 549]	0.101 to 1 µM	< 0.1 µM	> 5 µM	–
COCCN1CCC(Nc2ccnc(C(=O)NC[C@H](O)CN3CCc4ccccc4C3)c2)CC1 [Compound 550]	< 0.1 µM	< 0.1 µM	1 to 10 µM	–
CC(=O)N1CCC(Nc2ccnc(C(=O)NC[C@H](O)CN3CCc4ccccc4C3)c2)CC1 [Compound 551]	< 0.1 µM	< 0.1 µM	< 0.1 µM	–
CC(NC(=O)c1cc(NC2CCN(C(=O)C3CC3)CC2)ncn1)C(O)CN1CCc2ccccc2C1 (stereo not drawn) [Compound 552]	< 0.1 µM	< 0.1 µM	0.101 to 1 µM	–
COC(CNC(=O)c1cc(NC2CCN(C(=O)C3CC3)CC2)ncn1)CN1CCc2ccccc2C1 (stereo not drawn) [Compound 553]	0.101 to 1 µM	< 0.1 µM	> 5 µM	–
CSCCNc1cc(C(=O)NC[C@H](O)CN2CCc3ccccc3C2)ncn1 [Compound 554]	< 0.1 µM	< 0.1 µM	0.101 to 1 µM	–
CS(=O)(=O)CCNc1cc(C(=O)NC[C@H](O)CN2CCc3ccccc3C2)ncn1 [Compound 555]	0.101 to 1 µM	< 0.1 µM	1 to 10 µM	–
CCSCCNc1cc(C(=O)NC[C@H](O)CN2CCc3ccccc3C2)ncn1 [Compound 556]	< 0.1 µM	< 0.1 µM	–	0.101 to 1 µM
O=C(NC[C@H](O)CN1CCc2ccccc2C1)c1cc(NC2CC3(COC3)C2)ncn1 [Compound 557]	< 0.1 µM	< 0.1 µM	< 0.1 µM	–
O=C(NC[C@H](O)CN1CCc2ccccc2C1)c1cc(N[C@H]2C[C@H](N3CCOCC3)C2)ncn1 [Compound 558]	< 0.1 µM	< 0.1 µM	0.101 to 1 µM	–
CO[C@H]1C[C@H](Nc2cc(C(=O)NC[C@H](O)CN3CCc4ccccc4C3)ncn2)C1 [Compound 559]	< 0.1 µM	< 0.1 µM	0.101 to 1 µM	–
COCCO[C@H]1C[C@@H](Nc2cc(C(=O)NC[C@H](O)CN3CCc4ccccc4C3)ncn2)C1 [Compound 560]	< 0.1 µM	< 0.1 µM	0.101 to 1 µM	–
COCCN(CCOC)[C@H]1C[C@H](Nc2cc(C(=O)NC[C@H](O)CN3CCc4ccccc4C3)ncn2)C1 [Compound 561]	< 0.1 µM	< 0.1 µM	0.101 to 1 µM	–
COCCN(CCOC)[C@H]1C[C@@H](Nc2cc(C(=O)NC[C@H](O)CN3CCc4ccccc4C3)ncn2)C1 [Compound 562]	< 0.1 µM	< 0.1 µM	0.101 to 1 µM	–
CO[C@H]1C[C@@H](Nc2cc(C(=O)NC[C@H](O)CN3CCc4ccccc4C3)ncn2)C1 [Compound 563]	< 0.1 µM	< 0.1 µM	0.101 to 1 µM	–
CC(=O)N(C)[C@H]1C[C@H](Nc2cc(C(=O)NC[C@H](O)CN3CCc4ccccc4C3)ncn2)C1 [Compound 564]	< 0.1 µM	< 0.1 µM	0.101 to 1 µM	–
O=C(NC[C@H](O)CN1CCc2ccccc2C1)c1cc(NC2CNC2)ccn1 [Compound 565]	< 0.1 µM	< 0.1 µM	0.101 to 1 µM	–
